The text below walks through data of paper PMC10424176, “Chamelogk: A Chromatographic Chameleonicity Quantifier to Design Orally Bioavailable Beyond-Rule-of-5 Drugs” (Journal of Medicinal Chemistry, 2023).

One data set is described as follows: Chamelogk, chromatographic chameleonicity descriptor (PLRP-S RP-HPLC). Format: physicochemical. The note with it: Exp. minus Ext. log k' PLRP-S at 100% MeCN; linear fit at 50, 60, 70% MeCN; 20 mM ammonium acetate pH 7.0; 30 °C.
The compound `Brc1cnc2ccccc2c1` [3-bromoquinoline] gave a Chamelogk of 0.13.
For `O=C1CCC(N2C(=O)c3cccc(F)c3C2=O)C(=O)N1` (stereo not drawn) [4-F-thalidomide], the Chamelogk is given as 0.23.
Regarding `O=C1CCC(N2C(=O)c3cccc(O)c3C2=O)C(=O)N1` (stereo not drawn) [4-hydroxy thalidomide], the Chamelogk entry is “–0.16”.
Regarding `CCCN1C(=O)c2ccc(Cl)cc2Nc2ncccc21` [BI-0115], the Chamelogk was 0.19.
Still for that read-out and setting: then `COc1cc(C(=O)NCCOCCOCCOCC(=O)N[C@H](C(=O)N2C[C@H](O)C[C@H]2C(=O)NCc2ccc(-c3scnc3C)cc2)C(C)(C)C)ccc1Nc1ncc(C(F)(F)F)c(Oc2cccc3c2C(=O)CC3)n1` [BI-0319], with 0.99; and `CCN1C(=O)c2cc(C)ccc2Nc2ncccc21` [BI-1580], with 0.1; and `COc1cc(C(=O)NCCOCCOCCOCCC(=O)Nc2cccc3c2C(=O)N(C2CCC(=O)NC2=O)C3=O)ccc1Nc1ncc(C(F)(F)F)c(Oc2cccc3c2C(=O)CC3)n1` (stereo not drawn) [BI-3663], with 0.5.
On the same count and under the same terms, then `COc1cc(C(=O)NCCOCCOCCOCC(=O)N[C@H](C(=O)N2C[C@@H](O)C[C@H]2C(=O)NCc2ccc(-c3scnc3C)cc2)C(C)(C)C)ccc1Nc1ncc(C(F)(F)F)c(Oc2cccc3c2C(=O)CC3)n1` [BI-4206], with 0.7; and `CC(=O)N[C@H](C(=O)N1C[C@H](O)C[C@H]1C(=O)NCc1ccc(-c2scnc2C)cc1)C(C)(C)SCCCCCCNC(=O)C[C@@H]1N=C(c2ccc(Cl)cc2)c2c(sc(C)c2C)-n2c(C)nnc21` [BRD4 degrader AT1], with 1.26; and `Cc1sc2c(c1C)C(c1ccc(Cl)cc1)=NC(CC(N)=O)c1nnc(C)n1-2` (stereo not drawn) [CPI203], with 0.54.
`Cc1ncsc1-c1ccc(CNC(=O)[C@@H]2C[C@@H](O)CN2C(=O)[C@@H](NC(=O)CCCCOCCCCCOCCCCCCNc2cccc3c2C(=O)N(C2CCC(=O)NC2=O)C3=O)C(C)(C)C)cc1` (stereo partly drawn) [CRBN-6-5-5-VHL] displayed a Chamelogk of 1.05.
The compound `CCn1nc(C2CC2)cc1Nc1nc(C(=O)NC)nc2[nH]c3cc(-c4c(C)noc4C)c(OC)cc3c12` [HJB97] showed a Chamelogk of 0.15.
Turning to `COC(=O)C[C@@H]1N=C(c2ccc(Cl)cc2)c2c(sc(C)c2C)-n2c(C)nnc21` [MS-417], the Chamelogk came out at 0.29.
`CC(=O)N1c2ccc(-c3ccc(C(=O)NCCOCCOCCOCC(=O)N[C@H](C(=O)N4C[C@H](O)C[C@H]4C(=O)NCc4ccc(-c5scnc5C)cc4)C(C)(C)C)cc3)cc2[C@H](Nc2ccc(Cl)cc2)C[C@@H]1C` [MZP-54] gave a Chamelogk of 1.18.
For the compound `Cc1ncsc1-c1ccc(CNC(=O)[C@@H]2C[C@@H](O)CN2C(=O)[C@@H](NC(=O)C2(C#N)CC2)C(C)(C)C)c(O)c1` [OH-VH298 (S,R,S)], the Chamelogk is reported as 0.48.
With `Cc1sc2c(c1C)C(c1ccc(Cl)cc1)=N[C@@H](CC(=O)Nc1ccc(O)cc1)c1nnc(C)n1-2` [OTX-015], the Chamelogk turned out to be 0.64.
`Nc1ccc(OCCOCCOCCOCCNc2cccc3c2C(=O)N(C2CCC(=O)NC2=O)C3=O)cc1` (stereo not drawn) [PEG4-PH-NH2-pomalidomide] had a Chamelogk of 0.12.
For `Cc1sc2c(c1C)C(c1ccc(Cl)cc1)=N[C@@H](CC(=O)NCCCCCC(=O)NCc1cccc3c1C(=O)N(C1CCC(=O)NC1=O)C3=O)c1nnc(C)n1-2` (stereo partly drawn) [PROTAC BET degrader-10], the Chamelogk was found to be 0.83.
The same measure, in the same setting: next, `Cc1ncsc1-c1ccc(CNC(=O)[C@@H]2C[C@@H](O)CN2C(=O)[C@@H](NC(=O)CCOCCOc2ccc(Nc3ncc(C(F)(F)F)c(NCc4cccc(N(C)S(C)(=O)=O)c4)n3)cc2)C(C)(C)C)cc1` [PROTAC FAK degrader-1]: 0.79.
Turning to `O=C(CCCCC(=O)NCCN1C(=O)c2cccc3c(Sc4ccc(Br)cc4)ccc(c23)C1=O)NCCCCCCNc1cccc2c1C(=O)N(C1CCC(=O)NC1=O)C2=O` (stereo not drawn) [PROTAC Mcl degrader-1], the Chamelogk is on record as 0.93.
Same read-out and setting: next, `Cc1ncsc1-c1ccc(CNC(=O)[C@@H]2C[C@@H](O)CN2C(=O)[C@@H](NC(=O)COCCOCCNC(=O)COc2cnc3c(C4CCN(C(=O)c5ccc(OC(F)(F)F)cc5)CC4)ncnc3c2)C(C)(C)C)cc1` [PROTAC-1]: 1.07; `COC(=O)C[C@@H]1N=C(c2ccc(Cl)cc2)c2c(sc(C(=O)NCCCCCNc3cccc4c3C(=O)N(C3CCC(=O)NC3=O)C4=O)c2C)-n2c(C)nnc21` (stereo partly drawn) [ZXH-3-26]: 0.65; `CC(C)=O` [acetone]: “–0.13”.
Still for that read-out and setting: next, `c1ccc(-c2ccc(C(c3ccccc3)n3ccnc3)cc2)cc1` (stereo not drawn) [bifonazole]: 0.45; `Cc1ncsc1-c1ccc(CNC(=O)[C@@H]2C[C@H](O)CN2C(=O)[C@@H](NC(=O)C2(C#N)CC2)C(C)(C)C)c(O)c1` [cis-OH-VH298 (S,S,S)]: 0.45.
The same measure, in the same setting: next, `CC(=O)N[C@H](C(=O)N1C[C@@H](O)C[C@H]1C(=O)NCc1ccc(-c2scnc2C)cc1O)C(C)(C)C` [cis-phenol-VH032 (S,S,S)]: 0.65; `Clc1ccccc1C(c1ccccc1)(c1ccccc1)n1ccnc1` [clotrimazole]: 0.71.
`Cc1sc2c(c1C)C(c1ccc(Cl)cc1)=N[C@@H](CC(=O)NCCCCNC(=O)COc1cccc3c1C(=O)N(C1CCC(=O)NC1=O)C3=O)c1nnc(C)n1-2` (stereo partly drawn) [dBET1]: the Chamelogk was 0.8.
Regarding `Cc1sc2c(c1C)C(c1ccc(Cl)cc1)=N[C@@H](CC(=O)NCCCCCCCCNC(=O)COc1cccc3c1C(=O)N(C1CCC(=O)NC1=O)C3=O)c1nnc(C)n1-2` (stereo partly drawn) [dBET6], the Chamelogk is reported as 0.86.
The same measure, in the same setting: then `CN1C(=O)CN=C(c2ccccc2)c2cc(Cl)ccc21` [diazepam], with 0.30; and `CC/C(=C(/CC)c1ccc(O)cc1)c1ccc(O)cc1` [diethylstilbestrol], with 0.44; and `COc1cc2ncnc(Nc3ccc(F)c(Cl)c3)c2cc1OCCCCCOCCOCCC(=O)N[C@H](C(=O)N1C[C@H](O)C[C@H]1C(=O)NCc1ccc(-c2scnc2C)cc1)C(C)(C)C` [gefitinib-based PROTAC 3], with 1.36.
In the case of `C[C@]12CCC(=O)C=C1CC[C@@H]1[C@@H]2[C@@H](O)C[C@@]2(C)[C@H]1CC[C@]2(O)C(=O)CO` [hydrocortisone], the Chamelogk amounted to 0.10.
Still for that read-out and setting: next, `c1ccc2ccccc2c1` [naphthalene]: 0.02; `CC(=O)O[C@H]1C(=O)[C@@]2(C)[C@H]([C@H](OC(=O)c3ccccc3)[C@]3(O)C[C@H](OC(=O)[C@H](O)[C@@H](NC(=O)c4ccccc4)c4ccccc4)C(C)=C1C3(C)C)[C@]1(OC(C)=O)CO[C@@H]1C[C@@H]2O` [paclitaxel]: 0.15.
In turn, `CC(=O)N[C@H](C(=O)N1C[C@H](O)C[C@H]1C(=O)NCc1ccc(-c2scnc2C)cc1O)C(C)(C)C` [phenol-VH032 (S,R,S)] registered a Chamelogk of 0.37.
The same measure, in the same setting: next, `Oc1ccccc1` [phenol]: 0.16; `CC[C@@H]1/C=C(\C)C[C@H](C)C[C@H](OC)[C@H]2O[C@@](O)(C(=O)C(=O)N3CCCC[C@H]3C(=O)O[C@H](/C(C)=C/[C@@H]3CC[C@H](Cl)[C@H](OC)C3)[C@H](C)[C@@H](O)CC1=O)[C@H](C)C[C@@H]2OC` [pimecrolimus]: 0.43.
On the same count and under the same terms, next, `Nc1cccc2c1C(=O)N(C1CCC(=O)NC1=O)C2=O` (stereo not drawn) [pomalidomide]: 0.00; `CO[C@H]1C[C@@H]2CC[C@@H](C)[C@@](O)(O2)C(=O)C(=O)N2CCCC[C@H]2C(=O)O[C@H]([C@H](C)C[C@@H]2CC[C@@H](OC(=O)C(C)(CO)CO)[C@H](OC)C2)CC(=O)[C@H](C)/C=C(\C)[C@@H](O)[C@@H](OC)C(=O)[C@H](C)C[C@H](C)/C=C/C=C/C=C/1C` [temsirolimus]: 0.23.
Still for that read-out and setting: then `C=C/C=C/C[C@@H](C)[C@@H](O)[C@H]1C(=O)N[C@@H](CC)C(=O)N(C)CC(=O)N(C)[C@@H](CC(C)C)C(=O)N[C@@H](C(C)C)C(=O)N(C)[C@@H](CC(C)C)C(=O)N[C@@H](C)C(=O)N[C@H](C)C(=O)N(C)[C@@H](CC(C)C)C(=O)N(C)[C@@H](CC(C)C)C(=O)N(C)[C@@H](C(C)C)C(=O)N1C` [voclosporin], with 1.15.

The data set is the same for the next values; noted with them: Exp. minus Ext. log k' PLRP-S at 100% MeCN; linear fit at 50, 60, 70% MeCN; 20 mM ammonium acetate pH 7.0; 30 °C; listed as Diazepam.
In the case of `CN1C(=O)CN=C(c2ccccc2)c2cc(Cl)ccc21` [diazepam], the Chamelogk came out at 0.3.

Staying with this data set, now noted: Exp. minus Ext. log k' PLRP-S at 100% MeCN; linear fit at 50, 60, 70% MeCN; 20 mM ammonium acetate pH 7.0; 30 °C; listed as Hydrocortisone.
For the compound `C[C@]12CCC(=O)C=C1CC[C@@H]1[C@@H]2[C@@H](O)C[C@@]2(C)[C@H]1CC[C@]2(O)C(=O)CO` [hydrocortisone], the Chamelogk was found to be 0.1.

The same data set, now with this note: Exp. minus Ext. log k' PLRP-S at 100% MeCN; linear fit at 50, 60, 70% MeCN; 20 mM ammonium acetate pH 7.0; 30 °C; listed as Pomalidomide.
`Nc1cccc2c1C(=O)N(C1CCC(=O)NC1=O)C2=O` (stereo not drawn) [pomalidomide]: the Chamelogk came to 0.

A further data set is described as follows: physchem. The note with it: pH 7. Format: physicochemical. Here is the method: (§1) The mobile phases for every descriptor consisted of isocratic solutions of 20 mM ammonium acetate at pH 7.0 and acetonitrile at various percentages (see the specific descriptor). Small amounts of the 55 compounds were dissolved in buffer/acetonitrile mixtures (v/v) at concentrations ranging from 50 to 100 μg/mL. Subsequently, 10 μL of each solution (injection volume) was injected at an isocratic flow rate of 1 mL/min and analyzed at 30 °C (oven temperature). Chromatographic measurements were then analyzed in duplicate based on the specific chromatographic conditions of each descriptor.
BRlogD[39] required the injection of 55 samples into the X-Bridge column at 60% MeCN (predominant mobile phase constituent). The retention times and dead time (t0, baseline interference) were recorded, and the capacity factor log k’60 was calculated adapting eq 2. Lastly, BRlogD value was calculated from eq 3 [drawing 3] 3
For the compound `CC[C@@H]1/C=C(\C)C[C@H](C)C[C@H](OC)[C@H]2O[C@@](O)(C(=O)C(=O)N3CCCC[C@H]3C(=O)O[C@H](/C(C)=C/[C@@H]3CC[C@H](Cl)[C@H](OC)C3)[C@H](C)[C@@H](O)CC1=O)[C@H](C)C[C@@H]2OC` [pimecrolimus], the chromatographic logD – broadly, a lipophilicity value derived from retention on a column – was 6.52.

The next data set can be described thus: log kW^IAM and Δ log kW^IAM (IAM chromatography). Format: physicochemical. As to conditions: IAM column, extrapolated to 100% buffer from 10 to 50% MeCN, pH 7.0. Here is the method:
as §1, with “descriptor. […] The retention times of the samples were recorded, and the capacity factor was calculated for each mobile phase condition adapting eq 2, where t0 is the retention time of citric acid.” for “descriptor.”
In the case of `CC[C@@H]1/C=C(\C)C[C@H](C)C[C@H](OC)[C@H]2O[C@@](O)(C(=O)C(=O)N3CCCC[C@H]3C(=O)O[C@H](/C(C)=C/[C@@H]3CC[C@H](Cl)[C@H](OC)C3)[C@H](C)[C@@H](O)CC1=O)[C@H](C)C[C@@H]2OC` [pimecrolimus], the “log kW^IAM” value is 3.35.

The same data set, now with this note: polarity; from log kW^IAM and BRlogD (eq 4, 5).
With `CC[C@@H]1/C=C(\C)C[C@H](C)C[C@H](OC)[C@H]2O[C@@](O)(C(=O)C(=O)N3CCCC[C@H]3C(=O)O[C@H](/C(C)=C/[C@@H]3CC[C@H](Cl)[C@H](OC)C3)[C@H](C)[C@@H](O)CC1=O)[C@H](C)C[C@@H]2OC` [pimecrolimus], the “Δ log kW^IAM” value is reported as -1.62.

Experiment in another data set: not given
The note with it: cited from earlier work.
Turning to `CO[C@H]1C[C@@H]2CC[C@@H](C)[C@@](O)(O2)C(=O)C(=O)N2CCCC[C@H]2C(=O)O[C@H]([C@H](C)C[C@@H]2CC[C@@H](OC(=O)C(C)(CO)CO)[C@H](OC)C2)CC(=O)[C@H](C)/C=C(\C)[C@@H](O)[C@@H](OC)C(=O)[C@H](C)C[C@H](C)/C=C/C=C/C=C/1C` [temsirolimus], the ChameLogD is 2.
